≈ marks a conversion by molar mass, not a printed value.

For one assay, the system named is Escherichia coli. Nature of the assay: Minimum inhibitory concentration against Escherichia coli ATCC 25922. It counts as functional.
Another assay has as its system Staphylococcus aureus. Nature of the assay: Minimum inhibitory concentration (MIC) against Staphylococcus aureus ATCC 13709. The assay is classed as functional.

Usually MIC stands for the smallest concentration in the dilution series that meets the test's criterion for growth inhibition. A higher MIC goes with a less susceptible organism. `CCn1cc(C(=O)Nc2ccc3c(c2)C(=O)NCCC(=O)N[C@H](CCN)C(=O)N[C@@H](Cc2ccc(O)cc2)CO3)c(=O)c2ccc(C)nc21`: the MIC against Escherichia coli is 50 µM (≈ 33.5 µg/mL); against Staphylococcus aureus it was more than 100 µM.

As to `CCn1cc(C(=O)Nc2ccc3c(c2)C(=O)NCCC(=O)N[C@H](CCN)C(=O)N[C@@H](Cc2ccccc2)CO3)c(=O)c2ccc(C)nc21`, the MIC against Escherichia coli is 50 µM (≈ 32.7 µg/mL); against Staphylococcus aureus, more than 100 µM.

Turning to `NCC[C@@H]1NC(=O)CCNC(=O)c2cc(NC(=O)c3ccc4ccccc4c3)ccc2OC[C@@H](Cc2ccc(O)cc2)NC1=O`, the MIC in the assay on Escherichia coli and in the assay with Staphylococcus aureus was more than 100 µM throughout.

With `CCn1cc(C(=O)Nc2ccc3c(c2)C(=O)NCCC(=O)N[C@@H](CCN)C(=O)N[C@H](Cc2ccccc2)CO3)c(=O)c2ccc(C)nc21`, the MIC was 50 µM (≈ 32.7 µg/mL) in the assay with Escherichia coli and more than 100 µM against Staphylococcus aureus.

On to `NCC[C@@H]1NC(=O)CCNC(=O)c2cc(NC(=O)Cn3cnc4c(O)nc(N)nc43)ccc2OC[C@@H](Cc2ccc(O)cc2)NC1=O`, for which the MIC against Escherichia coli and in the assay with Staphylococcus aureus was more than 100 µM throughout.

On to `CC1COc2c(N3CCN(C)CC3)c(F)cc3c2N1CC(C(=O)NCCC(=O)Nc1ccc2c(c1)C(=O)NCCC(=O)N[C@@H](CCN)C(=O)N[C@H](Cc1ccc(O)cc1)CO2)C3=O` (some centres not stated), for which the figures for the MIC in the assay on Escherichia coli and in the assay on Staphylococcus aureus were 3 µM (≈ 2.62 µg/mL) and 13 µM (≈ 11.3 µg/mL), respectively.

Regarding `CCn1cc(C(=O)Nc2ccc3c(c2)C(=O)NCCC(=O)N[C@@H](CCN)C(=O)N[C@@H](Cc2ccc(O)cc2)CO3)c(=O)c2ccc(C)nc21`, the MIC with Escherichia coli is 50 µM (≈ 33.5 µg/mL); with Staphylococcus aureus, more than 100 µM.

With `CC1COc2c(N3CCN(C)CC3)c(F)cc3c2N1CC(C(=O)NCC(=O)Nc1ccc2c(c1)C(=O)NCCC(=O)N[C@@H](CCN)C(=O)N[C@H](Cc1ccc(O)cc1)CO2)C3=O` (some centres not stated), the MIC against Escherichia coli stood at 3 µM (≈ 2.57 µg/mL); in the assay on Staphylococcus aureus, 50 µM (≈ 42.9 µg/mL).

As to `CC1COc2c(N3CCN(C)CC3)c(F)cc3c2N1CC(C(=O)N(C)CC(=O)Nc1ccc2c(c1)C(=O)NCCC(=O)N[C@@H](CCN)C(=O)N[C@H](Cc1ccc(O)cc1)CO2)C3=O` (some centres not stated), the results for the MIC against Escherichia coli and against Staphylococcus aureus were 6 µM (≈ 5.23 µg/mL) and 50 µM (≈ 43.6 µg/mL), respectively.

As for `CCn1cc(C(=O)Nc2ccc3c(c2)C(=O)NCCC(=O)N[C@H](CCN)C(=O)N[C@H](Cc2ccccc2)CO3)c(=O)c2ccc(C)nc21`, the MIC against Escherichia coli is 50 µM (≈ 32.7 µg/mL); with Staphylococcus aureus it was more than 100 µM.

Take `CCN1CC(C(=O)Nc2ccc3c(c2)C(=O)NCCC(=O)N[C@@H](CCN)C(=O)N[C@H](Cc2ccc(O)cc2)CO3)C(=O)c2ccc(C)nc21` (some centres not stated): the minimal inhibitory concentration (MIC) was 50 µM (≈ 33.6 µg/mL) with Escherichia coli and more than 100 µM with Staphylococcus aureus.

As to `CCN1CC(CNc2ccc3c(c2)C(=O)NCCC(=O)N[C@@H](CCN)C(=O)N[C@H](Cc2ccc(O)cc2)CO3)C(=O)c2ccc(C)nc21` (some centres not stated), the MIC in the assay on Escherichia coli and with Staphylococcus aureus was more than 100 µM each time.

On to `CN1CCN(c2cc3c(cc2F)C(=O)C(C(=O)Nc2ccc4c(c2)C(=O)NCCC(=O)N[C@@H](CCN)C(=O)N[C@H](Cc2ccc(O)cc2)CO4)CN3C2CC2)CC1` (some centres not stated), for which the MIC with Escherichia coli was found to be 0.2 µM (≈ 0.157 µg/mL); in the assay with Staphylococcus aureus, 1.6 µM (≈ 1.26 µg/mL).

Consider `O=C(O)c1cn(C2CC2)c2cc(N3CCNCC3)c(F)cc2c1=O` [CIPROFLOXACIN], for which the MIC in the assay with Escherichia coli was 0.08 µM (≈ 0.0265 µg/mL); in the assay on Staphylococcus aureus it was 0.6 µM (≈ 0.199 µg/mL).

Turning to `CCn1cc(C(=O)Nc2ccc3c(c2)C(=O)NCCC(=O)N[C@@H](CCN)C(=O)N[C@@H](Cc2ccccc2)CO3)c(=O)c2ccc(C)nc21`, the MIC against Escherichia coli was 50 µM (≈ 32.7 µg/mL); with Staphylococcus aureus, more than 100 µM.

As to `CC1COc2c(N3CCN(C)CC3)c(F)cc3c2N1CC(C(=O)NCCCCC(=O)Nc1ccc2c(c1)C(=O)NCCC(=O)N[C@@H](CCN)C(=O)N[C@H](Cc1ccc(O)cc1)CO2)C3=O` (some centres not stated), the MIC with Escherichia coli amounted to 3 µM (≈ 2.7 µg/mL); with Staphylococcus aureus, 25 µM (≈ 22.5 µg/mL).

Consider `CC1COc2c(N3CCN(C)CC3)c(F)cc3c2N1CC(C(=O)Nc1ccc2c(c1)C(=O)NCCC(=O)N[C@@H](CCN)C(=O)N[C@H](Cc1ccc(O)cc1)CO2)C3=O` (some centres not stated), for which the MIC with Escherichia coli is 3 µM (≈ 2.4 µg/mL); with Staphylococcus aureus, 13 µM (≈ 10.4 µg/mL).

With `CCn1cc(C(=O)Nc2ccc3c(c2)C(=O)NCCC(=O)N[C@@H](CCN)C(=O)N[C@H](Cc2ccc(O)cc2)CO3)c(=O)c2ccc(C)nc21`, the MIC in the assay on Escherichia coli is 50 µM (≈ 33.5 µg/mL); in the assay with Staphylococcus aureus, more than 100 µM.

For `CC1COc2c(N3CCN(C)CC3)c(F)cc3c2N1CC(C(=O)NCCCCCC(=O)Nc1ccc2c(c1)C(=O)NCCC(=O)N[C@@H](CCN)C(=O)N[C@H](Cc1ccc(O)cc1)CO2)C3=O` (some centres not stated), the MIC came out at 3 µM (≈ 2.74 µg/mL) in the assay on Escherichia coli and 25 µM (≈ 22.9 µg/mL) in the assay on Staphylococcus aureus.

For `NCC[C@@H]1NC(=O)CCNC(=O)c2cc(NC(=O)c3cnccn3)ccc2OC[C@@H](Cc2ccc(O)cc2)NC1=O`, the MIC with Escherichia coli and in the assay with Staphylococcus aureus was more than 100 µM each time.

Turning to `CC1COc2c(N3CCN(C)CC3)c(F)cc3c2N1CC(C(=O)NCCCC(=O)Nc1ccc2c(c1)C(=O)NCCC(=O)N[C@@H](CCN)C(=O)N[C@H](Cc1ccc(O)cc1)CO2)C3=O` (some centres not stated), the MIC came to 3 µM (≈ 2.66 µg/mL) in the assay with Escherichia coli and 25 µM (≈ 22.1 µg/mL) in the assay with Staphylococcus aureus.

In the case of `CCn1cc(C(=O)O)c(=O)c2ccc(C)nc21` [NALIDIXIC ACID], the MIC against Escherichia coli amounted to 3 µM (≈ 0.697 µg/mL); against Staphylococcus aureus, 75 µM (≈ 17.4 µg/mL).

On to `CC1COc2c(N3CCN(C)CC3)c(F)cc3c(=O)c(C(=O)O)cn1c23` (configuration not stated) [OFLOXACIN], for which the MIC in the assay on Escherichia coli was found to be 0.78 µM (≈ 0.282 µg/mL); in the assay on Staphylococcus aureus it was 25 µM (≈ 9.03 µg/mL).

For `NCC[C@@H]1NC(=O)CCNC(=O)c2cc(NC(=O)c3cnc4ccccc4c3)ccc2OC[C@@H](Cc2ccc(O)cc2)NC1=O`, the MIC in the assay on Escherichia coli and against Staphylococcus aureus was more than 100 µM each time.

Consider `NCC[C@@H]1NC(=O)CCNC(=O)c2cc(NC(=O)Cn3cnc4c(N)ncnc43)ccc2OC[C@@H](Cc2ccc(O)cc2)NC1=O`, for which the MIC with Escherichia coli and with Staphylococcus aureus was more than 100 µM in each case.

In the case of `CCn1cc(C(=O)Nc2ccc3c(c2)C(=O)NCCC(=O)N[C@H](CCN)C(=O)N[C@H](Cc2ccc(O)cc2)CO3)c(=O)c2ccc(C)nc21`, the figures for the MIC with Escherichia coli and in the assay with Staphylococcus aureus were 50 µM (≈ 33.5 µg/mL) and more than 100 µM, respectively.
